Tests used:
[1] = system: HBV replication in HepAD38 cells; assay: Anti-HBV replication assay in HepAD38 cells (QPCR of extracellular HBV DNA); type: cell-based, HBV (genotype D, serotype ayw); settings: Hepatitis B virus, 168 h, 7 days incubation, extracellular HBV DNA by QPCR, read-out: Anti-HBV EC50
Summary of the method: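 Compounds (1 log10 serial dilutions, […]) were left 7 days on tetracycline-free HepAD38 cultures, a HepG2 line with tet-controlled HBV genotype D. EC50 came from 4-parameter regression of percent inhibition versus vehicle, using supernatant HBV DNA copies/mL measured by QPCR.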

[2] = In vitro cytotoxicity assay (MTT cell viability) in HepG2 cells; type: cell-based, human; settings: human
Summary of the method: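 CC50 values reflect loss of HepG2 viability after a 7-day exposure at 37 °C, 5% CO2. After 3-4 h with MTT, solubilized formazan was quantified at 492 nm relative to vehicle wells.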

Row | SMILES | EC50 [1] | CC50 at 7 days [2]
1 | COC(=O)[C@H](NC(=O)C(=O)c1c(C)c(C(=O)Nc2ccc(F)c(C)c2)c(C)n1C)C1CCCCC1 [Example 56, methyl (R)-2-cyclohexyl-2-(2-(4-((4-fluoro-3-methylphenyl)carbamoyl)-1,3,5-trimethyl-1H-pyrrol-2-yl)-2-oxoacetamido)acetate] | < 50 nM | 500 to 4990 nM
2 | Cc1cc(NC(=O)c2c(C)c(C(=O)C(=O)N[C@H](C(N)=O)[C@H](C)O)n(C)c2C)ccc1F [Example 57, 5-(2-(((2S,3S)-1-amino-3-hydroxy-1-oxobutan-2-yl)amino)-2-oxoacetyl)-N-(4-fluoro-3-methylphenyl)-1,2,4-trimethyl-1H-pyrrole-3-carboxamide] | 50 to 499 nM | > 30000 nM
3 | CNC(=O)[C@@H](NC(=O)C(=O)c1c(C)c(C(=O)Nc2ccc(F)c(C)c2)c(C)n1C)[C@H](C)O [Example 58, N-(4-fluoro-3-methylphenyl)-5-(2-(((2S,3S)-3-hydorxy-1-(methylamino)-1-oxobutan-2-yl)amino)-2-oxoacetyl)-1,2,4-trimethyl-1H-pyrrole-3-carboxamide] | 500 to 1000 nM | > 30000 nM
4 | Cc1cc(NC(=O)c2c(C)c(C(=O)C(=O)NC34CC5CC(C3)C(O)C(C5)C4)n(C)c2C)ccc1F [Example 59, N-(4-fluoro-3-methylphenyl)-5-(2-(((1s,3R,4s,5S,7s)-4-hydroxyadamantan-1-yl)amino)-2-oxoacetyl)-1,2,4-trimethyl-1H-pyrrole-3-carboxamide] | < 50 nM | > 30000 nM
5 | CNC(=O)[C@H](NC(=O)C(=O)c1c(C)c(C(=O)Nc2ccc(F)c(C)c2)c(C)n1C)C(C)(C)C [Example 60, (R)-5-(2-((3,3-dimethyl-1-(methylamino)-1-oxobutan-2-yl)amino)-2-oxoacetyl)-N-(4-fluoro-3-methylphenyl)-1,2,4-trimethyl-1H-pyrrole-3-carboxamide] | < 50 nM | > 30000 nM
6 | Cc1cc(NC(=O)c2c(C)c(C(=O)C(=O)N[C@@H](C(N)=O)[C@@H](C)O)n(C)c2C)ccc1F [Example 61, 5-(2-(((2R,3R)-1-amino-3-hydroxy-1-oxobutan-2-yl)amino)-2-oxoacetyl)-N-(4-fluoro-3-methylphenyl)-1,2,4-trimethyl-1H-pyrrole-3-carboxamide] | 50 to 499 nM | > 30000 nM
7 | CNC(=O)[C@H](NC(=O)C(=O)c1c(C)c(C(=O)Nc2ccc(F)c(C)c2)c(C)n1C)[C@@H](C)O [Example 62, N-(4-fluoro-3-methylphenyl)-5-(2-(((2R,3R)-3-hydroxy-1-(methylmaino)-1-oxobutan-2-yl)amino)-2-oxoacetyl)-1,2,4-trimethyl-1H-pyrrole-3-carboxamide] | < 50 nM | > 30000 nM
8 | Cc1cc(NC(=O)c2c(C)c(C(=O)C(=O)N[C@H](C)C(C)(C)C)n(C)c2C)ccc1F [Example 63, (R)-5-(2-((3,3-dimethylbutan-2-yl)amino)-2-oxoacetyl)-N-(4-fluoro-3-methylphenyl)-1,2,4-trimethyl-1H-pyrrole-3-carboxamide] | < 50 nM | > 30000 nM
9 | Cc1cc(NC(=O)c2c(C)c(C(=O)C(=O)NCC(C)(C)C)n(C)c2C)ccc1F [Example 64, N-(4-fluoro-3-methylphenyl)-1,2,4-trimethyl-5-(2-(neopentylamino)-2-oxoacetyl)-1H-pyrrole-3-carboxamide] | < 50 nM | 5000 to 30000 nM
10 | Cc1cc(NC(=O)c2c(C)c(C(=O)C(=O)NCC(C)(C)CO)n(C)c2C)ccc1F [Example 65, N-(4-fluoro-3-methylphenyl)-5-(2-((3-hydroxy-2,2-dimethylpropyl)amino)-2-oxoacetyl)-1,2,4-trimethyl-1H-pyrrole-3-carboxamide] | < 50 nM | > 30000 nM
11 | Cc1cc(NC(=O)c2c(C)c(C(=O)C(=O)NCC(C)(C)O)n(C)c2C)ccc1F [Example 66, N-(4-fluoro-3-methylphenyl)-5-(2-((2-hydroxy-2-methylpropyl)amino)-2-oxoacetyl)-1,2,4-trimethyl-1H-pyrrole-3-carboxamide] | < 50 nM | > 30000 nM

— patent publication US20190375708A1 (VenatoRx Pharmaceuticals, Inc., priority 2018, published 2019)
